Experimental data: ChEMBL document CHEMBL5385906, “Discovery of a Potent, Selective, and Orally Bioavailable Tool Compound for Probing the Role of Lysophosphatidic Acid Type 2 Receptor Antagonists in Fibrotic Disorders” (J Med Chem, 2023)

Experiments:
[1] = target: Lysophosphatidic acid receptor 4 (Homo sapiens, UniProt Q99677)
[2] = Protein binding in mouse lungs assessed as fraction unbound at 5 uM measured after 5 hrs by LC-MS/MS analysis
in vitro [3] = details: human, liver microsomes, CLH
Description: Intrinsic clearance in human liver microsomes at 0.5 uM in presence of NADPH regenerating system measured for 45 mins per mg protein by LC-MS/MS analysis

[4] = Protein binding in human plasma assessed as fraction unbound at 0.5 uM measured after 5 hrs by LC-MS/MS analysis
[5] = target: T1, Lysophosphatidic acid receptor 3 (Homo sapiens, UniProt Q9UBY5)
T1 sequence (Q9UBY5 whole entry): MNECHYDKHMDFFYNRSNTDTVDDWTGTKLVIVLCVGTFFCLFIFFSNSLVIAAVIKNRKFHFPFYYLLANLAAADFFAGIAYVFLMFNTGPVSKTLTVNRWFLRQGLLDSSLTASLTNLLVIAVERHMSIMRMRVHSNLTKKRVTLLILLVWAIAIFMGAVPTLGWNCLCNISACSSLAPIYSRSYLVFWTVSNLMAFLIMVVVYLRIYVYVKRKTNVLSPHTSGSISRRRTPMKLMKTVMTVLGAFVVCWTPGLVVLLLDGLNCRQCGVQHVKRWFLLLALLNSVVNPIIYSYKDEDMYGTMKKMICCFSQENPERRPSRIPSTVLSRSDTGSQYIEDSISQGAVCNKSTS
Description: Antagonist activity at human LPA3 receptor expressed in HeLa cells assessed as inhibition of LPA-induced calcium mobilization pretreated for 15 mins followed by LPA stimulation by FLIPR analysis

[6] = target: T2, Lysophosphatidic acid receptor 2 (Mus musculus, UniProt Q9JL06)
T2 sequence (Q9JL06 whole entry): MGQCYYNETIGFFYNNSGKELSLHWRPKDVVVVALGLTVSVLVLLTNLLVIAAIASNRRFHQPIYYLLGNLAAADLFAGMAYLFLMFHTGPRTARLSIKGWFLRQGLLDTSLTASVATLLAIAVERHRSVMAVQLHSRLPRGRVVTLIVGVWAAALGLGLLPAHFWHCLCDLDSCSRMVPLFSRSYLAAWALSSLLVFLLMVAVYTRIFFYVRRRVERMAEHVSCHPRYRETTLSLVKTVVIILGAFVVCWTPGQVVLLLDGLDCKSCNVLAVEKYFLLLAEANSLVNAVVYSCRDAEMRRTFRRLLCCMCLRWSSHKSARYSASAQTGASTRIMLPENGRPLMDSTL
Description: Antagonist activity at LPA2 receptor expressed in C57BL/6 mouse primary alveolar epithelial cells assessed as inhibition of LPA-induced calcium mobilization pretreated for 15 mins followed by LPA stimulation by FLIPR analysis

[7] = target: Lysophosphatidic acid receptor 2 (Homo sapiens, UniProt Q9HBW0)
Sequence of Lysophosphatidic acid receptor 2 (Homo sapiens, UniProt Q9HBW0) (Q9HBW0 whole entry): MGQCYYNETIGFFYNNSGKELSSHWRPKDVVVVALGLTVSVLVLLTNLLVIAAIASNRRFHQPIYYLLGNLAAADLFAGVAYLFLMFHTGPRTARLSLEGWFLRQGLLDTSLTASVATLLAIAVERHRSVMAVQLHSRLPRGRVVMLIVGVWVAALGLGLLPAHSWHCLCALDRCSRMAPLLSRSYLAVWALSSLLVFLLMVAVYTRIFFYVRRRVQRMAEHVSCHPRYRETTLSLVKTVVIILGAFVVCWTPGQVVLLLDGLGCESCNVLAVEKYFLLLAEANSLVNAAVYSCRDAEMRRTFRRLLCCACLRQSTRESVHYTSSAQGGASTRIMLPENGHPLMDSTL
Description: Antagonist activity at human LPA2 receptor expressed in CHO cells assessed as inhibition of LPA-induced calcium mobilization pretreated for 15 mins followed by LPA stimulation by FLIPR analysis

[8] = target: Lysophosphatidic acid receptor 5 (Homo sapiens, UniProt Q9H1C0)
Sequence of Lysophosphatidic acid receptor 5 (Q9H1C0 whole entry): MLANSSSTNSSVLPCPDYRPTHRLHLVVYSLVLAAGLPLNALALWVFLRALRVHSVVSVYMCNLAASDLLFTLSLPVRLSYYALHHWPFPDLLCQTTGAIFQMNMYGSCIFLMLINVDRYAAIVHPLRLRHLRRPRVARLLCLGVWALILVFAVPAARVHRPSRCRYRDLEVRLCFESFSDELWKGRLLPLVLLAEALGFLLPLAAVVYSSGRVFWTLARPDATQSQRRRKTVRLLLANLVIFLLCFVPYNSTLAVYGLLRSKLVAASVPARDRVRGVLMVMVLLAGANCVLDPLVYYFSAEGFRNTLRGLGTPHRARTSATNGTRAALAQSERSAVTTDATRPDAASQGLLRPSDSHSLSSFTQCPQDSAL
Description: Antagonist activity at human LPA5 receptor expressed in HeLa cells assessed as inhibition of LPA-induced calcium mobilization pretreated for 15 mins followed by LPA stimulation by FLIPR analysis

[9] = Apparent permeability across basolateral to apical side in human Caco-2 cells at 10 uM measured after 60 mins by LC-MS/MS analysis
[10] = Half life in C57BL/6J mouse at 5 mg/kg, po or 4 mg/kg, iv by UPLC-MS/MS analysis; details: in vivo
[11] = target: Lysophosphatidic acid receptor 1 (Homo sapiens, UniProt Q92633)
Sequence of Lysophosphatidic acid receptor 1 (Q92633 whole entry): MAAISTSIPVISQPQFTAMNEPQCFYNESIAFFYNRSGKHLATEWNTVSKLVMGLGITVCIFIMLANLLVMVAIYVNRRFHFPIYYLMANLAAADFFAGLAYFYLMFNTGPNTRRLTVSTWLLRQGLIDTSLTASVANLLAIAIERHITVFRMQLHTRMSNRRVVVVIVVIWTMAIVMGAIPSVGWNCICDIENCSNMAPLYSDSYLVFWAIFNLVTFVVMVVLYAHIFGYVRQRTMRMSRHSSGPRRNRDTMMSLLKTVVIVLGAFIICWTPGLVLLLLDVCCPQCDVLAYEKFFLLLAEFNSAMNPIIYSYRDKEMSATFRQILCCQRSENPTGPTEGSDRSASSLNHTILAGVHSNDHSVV
Description: Antagonist activity at human LPA1 receptor expressed in CHO cells assessed as inhibition of LPA-induced calcium mobilization pretreated for 15 mins followed by LPA stimulation by FLIPR analysis

[12] = Efflux ratio of apparent permeability across apical to basolateral to basolateral to apical side in human Caco-2 cells at 10 uM measured after 60 mins by LC-MS/MS analysis
[13] = Apparent permeability across apical to basolateral side in human Caco-2 cells at 10 uM measured after 60 mins by LC-MS/MS analysis
[14] = target: T2, Lysophosphatidic acid receptor 2; experiment: Antagonist activity at mouse LPA2 receptor expressed in HeLa cells assessed as inhibition of LPA-induced calcium mobilization pretreated for 15 mins followed by LPA stimulation by FLIPR analysis; assay type: functional, cell-based
in vivo [15] = details: C57BL/6J, mouse, po, 5 mg/kg
Description: Oral bioavailability in C57BL/6J mouse at 5 mg/kg by UPLC-MS/MS analysis

[16] = Protein binding in mouse plasma assessed as fraction unbound at 0.5 uM measured after 5 hrs by LC-MS/MS analysis
in vitro [17] = details: C57BL/6J, mouse, liver microsomes
Description: Intrinsic clearance in C57BL/6J mouse liver microsomes at 0.5 uM in presence of NADPH regenerating system measured for 45 mins per mg protein by LC-MS/MS analysis

in vivo [18] = details: C57BL/6J, mouse, po, 24.3 mg/kg
Description: Oral bioavailability in C57BL/6J mouse at 24.3 mg/kg by UPLC-MS/MS analysis

in vivo [19] = details: C57BL/6J, mouse, lungs, po, 24.3 mg/kg
Description: Total AUClast in C57BL/6J mouse lungs at 24.3 mg/kg, po and 1.4 mg/kg, iv by UPLC-MS/MS analysis

[20] = Clearance in C57BL/6J mouse at 1.4 mg/kg, iv by UPLC-MS/MS analysis; details: in vivo
in vivo [21] = details: C57BL/6J, mouse, plasma, po, 24.3 mg/kg
Description: Total AUClast in C57BL/6J mouse plasma at 24.3 mg/kg, po and 1.4 mg/kg, iv by UPLC-MS/MS analysis

in vivo [22] = details: C57BL/6J, mouse, lung and plasma, po, 24.3 mg/kg
Description: Ratio of total AUC in lung to plasma in C57BL/6J mouse at 24.3 mg/kg, po and 1.4 mg/kg, iv by UPLC-MS/MS analysis

in vivo [23] = details: C57BL/6J, mouse, po, 24.3 mg/kg; remark: listed apart in the source
Description: Oral absorption in C57BL/6J mouse at 24.3 mg/kg by UPLC-MS/MS analysis

in vivo [24] = details: C57BL/6J, mouse, lungs, po, 24.3 mg/kg; remark: listed apart in the source
Description: Total Cmax in C57BL/6J mouse lungs at 24.3 mg/kg, po and 1.4 mg/kg, iv by UPLC-MS/MS analysis

in vivo [25] = details: C57BL/6J, mouse, po, 24.3 mg/kg; remark: listed apart in the source
Description: Half life in C57BL/6J mouse at 24.3 mg/kg, po and 1.4 mg/kg, iv by UPLC-MS/MS analysis

in vivo [26] = details: C57BL/6J, mouse, plasma, po, 24.3 mg/kg; remark: listed apart in the source
Description: Total Cmax in C57BL/6J mouse plasma at 24.3 mg/kg, po and 1.4 mg/kg, iv by UPLC-MS/MS analysis

in vivo [27] = details: C57BL/6J, mouse, po, 24.8 mg/kg
Description: Total AUC last in C57BL/6J mouse lungs at 24.8 mg/kg, po and 1.8 mg/kg, iv by LC-MS/MS analysis

in vivo [28] = details: C57BL/6J, mouse, po, 24.8 mg/kg; remark: listed apart in the source
Description: Oral availability in C57BL/6J mouse at 24.8 mg/kg by LC-MS/MS analysis

in vivo [29] = details: C57BL/6J, mouse, po, 24.8 mg/kg; remark: listed apart in the source
Description: Half life in C57BL/6J mouse at 24.8 mg/kg, po and 1.8 mg/kg, iv by LC-MS/MS analysis

in vivo [30] = details: C57BL/6J, mouse, po, 24.8 mg/kg; remark: listed apart in the source
Description: Total AUC last in C57BL/6J mouse plasma at 24.8 mg/kg, po and 1.8 mg/kg, iv by LC-MS/MS analysis

in vivo [31] = details: C57BL/6J, mouse, po, 24.8 mg/kg; remark: listed apart in the source
Description: Total Cmax in C57BL/6J mouse lungs at 24.8 mg/kg, po and 1.8 mg/kg, iv by LC-MS/MS analysis

in vivo [32] = details: C57BL/6J, mouse, po, 24.8 mg/kg; remark: listed apart in the source
Description: Oral absorption in C57BL/6J mouse at 24.8 mg/kg by LC-MS/MS analysis

in vivo [33] = details: C57BL/6J, mouse, po, 24.8 mg/kg; remark: listed apart in the source
Description: Total Cmax in C57BL/6J mouse plasma at 24.8 mg/kg, po and 1.8 mg/kg, iv by LC-MS/MS analysis

in vivo [34] = details: C57BL/6J, mouse, lung, po, 26.5 mg/kg
Description: Total Cmax in C57BL/6J mouse lungs at 26.5 mg/kg, po and 2 mg/kg, iv by LC-MS/MS analysis

in vivo [35] = details: C57BL/6J, mouse, lung, po, 26.5 mg/kg; remark: listed apart in the source
Description: Total AUC last in C57BL/6J mouse lungs at 26.5 mg/kg, po and 2 mg/kg, iv by LC-MS/MS analysis

in vivo [36] = details: C57BL/6J, mouse, plasma, po, 26.5 mg/kg
Description: Total Cmax in C57BL/6J mouse plasma at 26.5 mg/kg, po and 2 mg/kg, iv by LC-MS/MS analysis

in vivo [37] = details: C57BL/6J, mouse, plasma, po, 26.5 mg/kg; remark: listed apart in the source
Description: Total AUC last in C57BL/6J mouse plasma at 26.5 mg/kg, po and 2 mg/kg, iv by LC-MS/MS analysis

in vivo [38] = details: C57BL/6J, mouse, po, 26.5 mg/kg
Description: Oral bioavailability in C57BL/6J mouse at 26.5 mg/kg by LC-MS/MS analysis

in vivo [39] = details: C57BL/6J, mouse, po, 26.5 mg/kg; remark: listed apart in the source
Description: Half life in C57BL/6J mouse at 26.5 mg/kg, po and 2 mg/kg, iv by LC-MS/MS analysis

in vivo [40] = details: C57BL/6J, mouse, po, 26.5 mg/kg; remark: listed apart in the source
Description: Oral absorption in C57BL/6J mouse at 26.5 mg/kg by LC-MS/MS analysis

Sequence of Lysophosphatidic acid receptor 4 (Q99677 whole entry): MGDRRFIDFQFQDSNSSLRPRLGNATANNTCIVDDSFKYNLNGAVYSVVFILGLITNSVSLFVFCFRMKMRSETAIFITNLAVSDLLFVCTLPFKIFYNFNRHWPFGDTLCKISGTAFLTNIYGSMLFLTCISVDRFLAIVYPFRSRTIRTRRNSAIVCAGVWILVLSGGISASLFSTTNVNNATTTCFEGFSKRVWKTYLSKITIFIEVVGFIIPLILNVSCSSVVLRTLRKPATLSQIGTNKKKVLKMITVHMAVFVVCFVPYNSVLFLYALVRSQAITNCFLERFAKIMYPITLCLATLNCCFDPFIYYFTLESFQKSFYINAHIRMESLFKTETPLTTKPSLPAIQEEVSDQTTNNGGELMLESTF

IC50 [1] [nM] | fraction unbound at 5 h, 5 µM [2] | microsomal CLint at 0.75 h, 0.5 µM (in vitro [3]) [µL/min/mg] | fraction unbound at 5 h, 0.5 µM [4] | IC50 [5] [nM] | IC50 [7] [nM] | Papp B→A at 1 h, 10 µM [9] [×10⁻⁶ cm/s] | IC50 [11] [nM] | efflux ratio at 1 h, 10 µM [12] | Papp A→B at 1 h, 10 µM [13] [×10⁻⁶ cm/s] | IC50 ([14]; read-out: pIC50 (converted)) [nM] | fraction unbound at 5 h, 0.5 µM [16] | microsomal CLint at 0.75 h, 0.5 µM (in vitro [17]) [µL/min/mg] | SMILES | other results
6310 | 0.001 | 758 | 0.004 | 38900 | 676 | 0.91 | 9770 | 1 | 0.89 | 295 | 0.0065 | > 759 | Cc1csc2c(N[C@@H](C)CN3CCN(S(=O)(=O)c4ccc(Cl)c(Cl)c4)CC3)ncnc12 | IC50 [6]: 324 nM; IC50 [8]: > 50100 nM; half-life [10]: 1 h; bioavailability (in vivo [15]): 0.23%
24000 | 0.0385 | 80 | < 0.01 | > 50100 | 479 | 13.5 | > 50100 | 1.7 | 8.12 | – | 0.0023 | 156 | COC(=O)Nc1nc(C)c(S(=O)(=O)N2CCN(C[C@H](C)Nc3ncnc4c(C)csc34)CC2)s1 | bioavailability (in vivo [18]): 85%; AUC(0-t) (in vivo [19]): 119 µg·h/mL; clearance [20]: 0.82 mL/min/kg; AUC(0-t) (in vivo [21]): 435 µg·h/mL; Kp (in vivo [22]): 0.27; Fa (in vivo [23]): 91%; Cmax (in vivo [24]): 25300 ng/mL; half-life (in vivo [25]): 2.17 h; Cmax (in vivo [26]): 91300 ng/mL; IC50 ([14]; read-out: IC50): 7080 nM
– | 0.0122 | 52 | < 0.01 | – | 0.347 | 6.41 | > 50100 | 2.9 | 2.23 | 2.04 | 0.0015 | 125 | COC(=O)Nc1nc(C)c(S(=O)(=O)N2CCN(C[C@H](C)Nc3ncnc4c(-c5cn(C)nc5C(F)(F)F)cccc34)CC2)s1 | AUC(0-t) (in vivo [27]): 78 µg·h/mL; bioavailability (in vivo [28]): 89%; half-life (in vivo [29]): 1.69 h; AUC(0-t) (in vivo [30]): 418 µg·h/mL; Cmax (in vivo [31]): 19000 ng/mL; Fa (in vivo [32]): 100%; Cmax (in vivo [33]): 70100 ng/mL
– | 0.0175 | 34 | < 0.01 | – | 2.45 | – | > 50100 | 5.7 | – | 4.17 | 0.0011 | 49 | COC(=O)Nc1nc(C)c(S(=O)(=O)N2CCN(C[C@H](C)Nc3ncnc4c(-c5ccc(C)nc5)cccc34)CC2)s1 | Cmax (in vivo [34]): 15400 ng/mL; AUC(0-t) (in vivo [35]): 50.5 µg·h/mL; Cmax (in vivo [36]): 71500 ng/mL; AUC(0-t) (in vivo [37]): 280 µg·h/mL; bioavailability (in vivo [38]): 87%; half-life (in vivo [39]): 1.67 h; Fa (in vivo [40]): 97%
